The data set concerns subjects with chronic hand eczema. As to the kind of experiment: phase 2a clinical trial, twice daily topical ointment 30 mg/g vs ointment vehicle for 8 weeks. The format is in vivo, human. The procedure: The invention provides a clinical trial to compare efficacy of twice daily topical ointment with 30 mg/g of the compound of formula (I), with an ointment vehicle for 8 weeks in the treatment of hand eczema. The compound of formula (I) is formulated in an ointment containing the active compound in 30 mg/g, white soft paraffin, hard paraffin and squalane. Dosis range will be a thin layer covering the affected areas on the hands corresponding to 1.7 mg/cm^2 of the compound of formula (I). The primary efficacy parameter for ‘treatment success’ is Physician's Global Assessment of disease severity (PGA). […] Patient's Global Assessment of disease severity (PaGA) was recorded at the same visits. • 1. […] In overall good health including well controlled diseases (e.g. hypertension, diabetes and thyroid disease) as determined by medical history, physical examination, electrocardiogram (ECG), vital signs (blood pressure, heart rate and body temperature) and clinical laboratory evaluation. […]

“Also recorded” adds a separate entry of the source.

As for `C[C@H]1CN(C(=O)CC#N)[C@]12CCN(c1ncnc3[nH]ccc13)C2` [compound of formula (I), 3-[(3S,4R)-3-methyl-6-(7H-pyrrolo[2,3-d]pyrimidin-4-yl)-1,6-diazaspiro[3.4]octan-1-yl]-3-oxopropanenitrile], the ““treatment success” according to Physician's Global Assessment of disease severity (PGA)” value (ointment 30 mg/g twice daily topical vs ointment vehicle, up to 8 weeks, prespecified analysis at week 8, subjects with chronic hand eczema) is recorded as “resulted in “treatment success”; also recorded: statistically significant (P=0.009) difference in favor”. For the setting “ointment 30 mg/g, twice daily topical, patients with hand eczema”, the safety and tolerability result is “safe and well tolerated”.

The values are drawn from US20260216193A1, “TREATMENT OF HAND ECZEMA” (LEO Pharma A/S, priority 2016, published 2026).
